Assay results published in patent US9499493B2, “2,4-pyrimidinediamine compounds and their uses” (Rigel Pharmaceuticals, Inc., priority 2002, dated 2016).
“And” between values parts separate entries of the source, which are not always exact repeats. Identical values can stand only once.

Tests used:
[1] = system: cultured human mast cells (CHMC); assay: CHMC high cell density IgE activation: IL-13; assay type: cell-based; details: anti-IgE activation
Procedure: (§1) Inhibition of degranulation was measured at both low and high cell density by quantifying the release of the granule specific factors tryptase, histamine and hexosaminidase. Inhibition of release and/or synthesis of lipid mediators was assessed by measuring the release of leukotriene LTC4 and inhibition of release and/or synthesis of cytokines was monitored by quantifying TNF-α, IL-6 and IL-13. Tryptase and hexosaminidase were quantified using fluorogenic substrates as described in their respective examples. […] The protocols of the various assays are provided below.
(§2) After sensitizing, cells are counted, pelleted (1000 rpm, 5-10 minutes), and resuspended at 1-2×10^6 cells/ml in MT buffer. Add 100 ul of cell suspension to each well and 100 ul of compound dilutions. The final vehicle concentration is 0.5% DMSO. Incubate at 37° C. (5% CO2) for 1 hour. After 1 hour of compound treatment, stimulate cells with 6× anti-IgE. Mix wells with the cells and allow plates to incubate at 37° C. (5% CO2) for one hour. After 1 hour incubation, pellet cells (10 minutes, 1000 RPM) and collect 200 ul per well of the supernatant, being careful not to disturb pellet. Place the supernatant plate on ice. During the 7-hour step (see next) perform tryptase assay on supernatant that had been diluted 1:500. Resuspend cell pellet in 240 ul of CM media containing 0.5% DMSO and corresponding concentration of compound. Incubate CHMC cells for 7 hours at 37° C. (5% CO2). After incubation, pellet cells (1000 RPM, 10 minutes) and collect 225 ul per well and place in −80° C. until ready to perform ELISAS. ELISAS are performed on appropriately diluted samples (determined empirically for each donor cell population so that the sample measurement falls within the standard curve) following the supplier's instructions.

[2] = Sheep model of allergic asthma (Ascaris suum challenge); assay type: in vivo; details: aqueous suspension; for LAR and AHR (in words) / AHR (% inhibition) / EAR (% inhibition) / LAR (% inhibition): 45 mg/sheep; for LAR and AHR (in words): 60 minutes prior to allergen challenge; for AHR (% inhibition) / EAR (% inhibition) / LAR (% inhibition): pretreatment 60 min
Procedure: Sheep develop bronchoconstriction within minutes of exposure to inhaled antigen (Ascaris suum), with maximal airflow obstruction during the early allergic response (EAR). Release of preformed mast cell mediators is likely responsible for this early phase of airflow obstruction. […] In the sheep, AHR develops a few hours following antigen challenge, and can persist for up to 2 weeks.
In the sheep model of allergic asthma, sheep are administered aerosols of test article via an endotracheal tube, followed by an aerosol challenge with antigen extracted from the roundworm, Ascaris suum, to which the sheep are naturally allergic. Allergen challenge leads to direct bronchoconstriction (both EAR and LAR) and a persistent non-specific AHR. These three characteristics are similar to those seen in human allergic asthmatics. The activity of the test agent is determined by changes in the lung resistance (RL), which is calculated from measurements of transpulmonary pressure, flow, and respiratory volume. […] The LAR is a less pronounced increase in RL, which starts approximately 5-6 hours following allergen challenge and is resolved by 8 hours post-challenge. Twenty-four hours after the challenge, a dose response to carbachol is measured to determine the AHR, which is expressed as the dose of carbachol required to increase RL by 400% over baseline. (This measurement is referred to as the provocative concentration of carbachol that elicits a 400% increase in RL over baseline (PC400). The data are compared to historical control data for the same individual when administered a saline control aerosol and challenged with Ascaris suum.

[3] = system: cultured human mast cells (CHMC); assay: CHMC high cell density IgE activation: LTC4; assay type: cell-based; details: anti-IgE activation
Procedure: as §1, §2

[4] = system: Jurkat cells; assay: Jurkat toxicity, Cell Titer Glo assay; assay type: cell-based; details: 18 hours incubation
Procedure: Seed 50 μl cells (1×10^6/ml) into each well containing 50 μl compound. […] Shake plates for 1 minute to mix cells and compound. Incubate plates at 37° C. […] Next day, harvest 50 μl cells from each well, add to 50 μl Cell Titer Glo reagent ([…]). Shake plates for 1 minute. Read on luminometer.

[5] = system: cultured human mast cells (CHMC); assay: CHMC low cell density ionomycin activation: tryptase assay; assay type: cell-based
[6] = system: basophil cells; assay: Basophil ionomycin activation: histamine release assay; assay type: cell-based, human; details: Basophils
Procedure: (§3) The basophil activation assay was carried out using whole human peripheral blood from donors allergic to dust mites with the majority of the red blood cells removed by dextran sedimentation. Human peripheral blood was mixed 1:1 with 3% dextran T500 and RBCs were allowed to settle for 20-25 min. The upper fraction was diluted with 3 volumes of D-PBS and cells were spun down for 10 min at 1500 rpm, RT. Supernatant was aspirated and cells were washed in an equal volume MT-buffer. Finally, cells were resuspended in MT-buffer containing 0.5% DMSO in the original blood volume. 80 uL cells were mixed with 20 uL compound in the presence of 0.5% DMSO, in triplicate, in a V-bottom 96-well tissue culture plate. A dose range of 8 compound concentrations was tested resulting in a 10-point dose response curve including maximum (stimulated) and minimum (unstimulated) response. […] The cells were stimulated for 30 minutes at 37° C., 5% CO2. The plate was spun for 10 min at 1500 rpm at room temperature and 80 uL the supernatant was harvested for histamine content analysis using the histamine ELISA kit supplied by Immunotech. The ELISA was performed according to supplier's instructions.
Assays for ionomycin-induced basophil cell degranulation were carried out as described for the Basophil IgE or Dustmite Activation Assay (Section 6.4.6, supra), with the exception that following incubation with compound, cells were stimulated with 20 μl of 2 μM ionomycin.

[7] = system: basophil cells; assay: Basophil dustmite activation: histamine release assay; assay type: cell-based; details: human basophils, house dustmite stimulus; second part of TABLE 1
Procedure: as §3

[8] = system: bone marrow derived mast cells (BMMC); assay: BMMC high cell density IgE activation: TNFalpha; assay type: cell-based, mouse; details: anti-IgE, second part of TABLE 1, read-out: BMMC anti-IgE TNF-alpha IC50
Method in brief: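 IgE-sensitized BMMC (1-3×10^6 cells/ml, MT buffer) were pretreated with compound for 1 h at 37 °C in 0.5% DMSO, then stimulated with DNP-BSA (6× stimulus, 60 ng/ml) for 1 h. Supernatant was taken, and cells were re-incubated 4–5 h in WEI-conditioned medium with compound. Mediators were quantified by ELISA.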

| SMILES | IC50 [1] [nM] | LAR and AHR (in words) [2] | AHR (% inhibition) [2] [%] | EAR (% inhibition) [2] | LAR (% inhibition) [2] [%] | EAR (in words) [2] | IC50 [3] [nM] | IC50 [4] [nM] | IC50 [5] [nM] | IC50 [6] [nM] | IC50 [7] [nM] | IC50 [8] [nM] |
| --- | --- | --- | --- | --- | --- | --- | --- | --- | --- | --- | --- | --- |
| CNC(=O)COc1cccc(Nc2ncc(F)c(Nc3ccc4c(c3)NCCO4)n2)c1 [R921219, N4-(1,4-Benzoxazin-6-yl)-5-fluoro-N2-[3-(N-methylamino)carbonylmethyleneoxyphenyl]-2,4-pyrimidinediamine] | 175 | blocked | 90 | 54% and 56% | 75 | greatly reduced | 34 | > 10000 | > 10000 | > 10000 | 20 | 39 |
| CNC(=O)COc1cccc(Nc2ncc(F)c(Nc3cccc(O)c3)n2)c1 [R926508, 5-Fluoro-N4-(3-hydroxyphenyl)-N2-[3-(N-methylamino)carbonylmethyleneoxyphenyl]-2,4-pyrimidinediamine] | 763 | blocked | 88 | 21% | 90 | greatly reduced | 505 | > 10000 | > 10000 | > 10000 | 54 | 54 |
